Experimental data published in ChEMBL document CHEMBL1201862, “PubChem BioAssay data set” (2004).
Active and inactive are the calls of the source.

Key:
[1] = molecular target: T1, Voltage-gated N-type calcium channel alpha-1B subunit/Amyloid beta A4 precursor protein-binding family A member 1 (Homo sapiens, UniProt Q00975+Q02410); format: protein assay
[2] = molecular target: T1, Voltage-gated N-type calcium channel alpha-1B subunit/Amyloid beta A4 precursor protein-binding family A member 1; format: protein assay; remark: listed apart in the source
[3] = molecular target: T2, Type-1 angiotensin II receptor (Homo sapiens, UniProt P30556); experiment: AT1 receptor agonists, dose response, selectivity assay for APJ receptor agonist project, cell-based, uHTS hits (AID 488865); format: functional;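 also: beta-arrestin recruitment to AT1 measured by enzyme fragment complementation luminescence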
T2 sequence (P30556 whole entry): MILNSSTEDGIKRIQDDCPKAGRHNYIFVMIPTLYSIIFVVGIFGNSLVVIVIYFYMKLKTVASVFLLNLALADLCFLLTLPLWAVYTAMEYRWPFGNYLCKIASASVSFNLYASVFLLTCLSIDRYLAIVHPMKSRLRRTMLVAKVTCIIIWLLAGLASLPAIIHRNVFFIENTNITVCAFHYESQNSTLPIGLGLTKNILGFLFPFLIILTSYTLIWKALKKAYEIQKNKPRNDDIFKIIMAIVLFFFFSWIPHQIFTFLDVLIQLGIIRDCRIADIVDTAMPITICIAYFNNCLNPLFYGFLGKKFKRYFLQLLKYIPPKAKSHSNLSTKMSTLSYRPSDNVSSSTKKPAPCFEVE

H9c2 = experiment: cells; format: functional, cell-based; conditions: Rattus norvegicus, H9c2, Myocardium;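 also: confirmatory concentration-response retest of ultra-high-throughput screening hits for modulation of myocardial damage; cell death induced by hydrogen peroxide oxidative stress; compound pretreatment for 60 min then peroxide exposure for 2 h; potency is for protecting the cells against peroxide damage rather than for killing them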
[4] = molecular target: G-protein coupled receptor 55 (Homo sapiens, UniProt Q9Y2T6); experiment: GPR55 antagonists blocking LPI-driven arrestin recruitment, primary screen, imaging, U2OS, beta-arrestin-GFP, LPI agonist (AID 2013); format: functional;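 also: antagonist potency measured as reduced agonist-driven arrestin aggregation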
Chain of G-protein coupled receptor 55 (Q9Y2T6 whole entry): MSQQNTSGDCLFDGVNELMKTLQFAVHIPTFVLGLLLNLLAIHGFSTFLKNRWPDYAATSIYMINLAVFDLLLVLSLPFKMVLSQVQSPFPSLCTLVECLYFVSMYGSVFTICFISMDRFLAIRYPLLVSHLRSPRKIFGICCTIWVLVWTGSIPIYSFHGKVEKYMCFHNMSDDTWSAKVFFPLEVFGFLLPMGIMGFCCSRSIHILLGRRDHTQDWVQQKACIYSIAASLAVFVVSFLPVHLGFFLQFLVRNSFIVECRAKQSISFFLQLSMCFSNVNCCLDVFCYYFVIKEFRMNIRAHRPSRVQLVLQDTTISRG

[5] = Vero E6 cell cytotoxicity, dose response, cytotoxicity control for non-replicating M. tuberculosis project, secondary assay (AID 492998); format: functional, VeroE6; conditions: Vero C1008
BJ [6] = experiment: cells; format: functional, cell-based; conditions: Homo sapiens
[7] = cytotoxicity toward NIH3T3 fibroblasts, dose response, counter-screen, cell-based, ATP luminescence, mouse fibroblasts (AID 2010); format: functional;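 also: cells exposed to compound for about 90 hours before reading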
[8] = cytotoxicity toward DRD oncogenic fibroblasts, dose response, cell-based, non-viral oncogenic, luminescence (AID 1934); format: functional; conditions: Homo sapiens
BJ [9] = experiment: cytotoxicity toward BJ-TERT fibroblasts, dose response, cell-based, RAS-independent, luminescence (AID 1933); format: functional; conditions: Homo sapiens
[10] = HepG2 cell cytotoxicity, dose response, cytotoxicity control for Shn3 inhibitor project, CellTiter-Glo, cherry-picked (AID 624134); format: functional, cell-based
[11] = Shn3 3'UTR reporter inhibitors, dose response, cell-based, Clone20 osteoblasts, firefly luciferase, cherry-picked (AID 624132); format: functional;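 also: firefly luciferase luminescence from reporter carrying the Shn3 3'UTR in osteoblasts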
cells = format: functional
[12] = HepG2 cell cytotoxicity, dose response, cytotoxicity control for non-replicating M. tuberculosis project (AID 489018); format: functional; conditions: Mycobacterium tuberculosis
Ion channel NompC = Ion channel NompC (Danio rerio, UniProt Q7T1G6); experiment: Dose response cell-based high-throughput screening assay for agonists of the transient receptor potential channel N1 (TRPN1). [Related pubchem assays (depositor defined):AID1424, AID1448]; format: functional
BJ [13] = experiment: cytotoxicity toward BJ-TERT-LT-ST fibroblasts, dose response, cell-based, RAS-independent, luminescence (AID 1935); format: functional; conditions: Homo sapiens;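 also: BJ fibroblasts immortalized with TERT plus LT and ST oncogenes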
[14] = molecular target: Eukaryotic translation initiation factor 4E (Mus musculus, UniProt P63073); experiment: eIF4E–eIF4G protein interaction inhibitors, dose response, biochemical, TR-FRET (AID 855); format: functional;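 also: potency for disrupting eIF4E binding to eIF4GI seen as loss of FRET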
Chain of Eukaryotic translation initiation factor 4E (P63073 whole entry): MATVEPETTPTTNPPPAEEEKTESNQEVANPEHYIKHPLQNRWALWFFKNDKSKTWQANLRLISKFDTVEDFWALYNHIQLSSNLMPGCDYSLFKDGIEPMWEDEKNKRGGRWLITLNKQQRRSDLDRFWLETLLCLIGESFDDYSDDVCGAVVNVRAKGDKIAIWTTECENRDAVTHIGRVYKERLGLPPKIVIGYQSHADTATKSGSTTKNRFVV

[15] = control 3'UTR Renilla luciferase suppression, dose response, counter-screen for Shn3 inhibitor project, cell-based, Clone20-Shn3RL, cherry-picked (AID 624133); format: functional
[16] = inhibitors of intracellular T. cruzi replication, confirmation, NIH3T3 host cells, beta-gal luminescence (AID 2044); format: functional, cell-based;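 also: intracellular parasites grown in NIH/3T3 mouse fibroblasts as host cells; luminescent beta-galactosidase reporter signal from transgenic T. cruzi replicating inside host cells; inhibitors lower the luminescence signal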
Mucolipin-3 = Mucolipin-3 (Homo sapiens, UniProt Q8TDD5); experiment: Fluorescence counterscreen assay for […] agonists: dose response cell-based high-throughput screening assay to identify agonists of the transient receptor potential channel ML3 (TRPML3). [Related pubchem assays: 1424, 1448 ]; format: functional
Chain of Mucolipin-3 (Q8TDD5 whole entry): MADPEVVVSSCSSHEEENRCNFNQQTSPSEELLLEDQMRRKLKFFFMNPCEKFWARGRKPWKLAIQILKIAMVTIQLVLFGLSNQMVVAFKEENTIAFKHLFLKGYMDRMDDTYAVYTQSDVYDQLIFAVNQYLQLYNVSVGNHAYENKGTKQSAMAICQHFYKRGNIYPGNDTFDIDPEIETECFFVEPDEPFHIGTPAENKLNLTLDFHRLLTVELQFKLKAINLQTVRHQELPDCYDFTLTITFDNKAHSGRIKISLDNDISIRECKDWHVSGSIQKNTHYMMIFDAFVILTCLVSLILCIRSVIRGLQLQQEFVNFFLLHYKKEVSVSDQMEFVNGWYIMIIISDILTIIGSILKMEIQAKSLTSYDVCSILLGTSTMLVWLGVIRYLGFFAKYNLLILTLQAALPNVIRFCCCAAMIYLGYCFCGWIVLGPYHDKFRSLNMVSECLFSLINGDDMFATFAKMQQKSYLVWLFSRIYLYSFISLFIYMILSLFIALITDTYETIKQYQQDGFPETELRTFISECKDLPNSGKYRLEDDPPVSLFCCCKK

[17] = THP-1 cell cytotoxicity, dose response, cytotoxicity control for non-replicating M. tuberculosis project (AID 489025); format: functional

T1 sequence (Q00975 whole entry): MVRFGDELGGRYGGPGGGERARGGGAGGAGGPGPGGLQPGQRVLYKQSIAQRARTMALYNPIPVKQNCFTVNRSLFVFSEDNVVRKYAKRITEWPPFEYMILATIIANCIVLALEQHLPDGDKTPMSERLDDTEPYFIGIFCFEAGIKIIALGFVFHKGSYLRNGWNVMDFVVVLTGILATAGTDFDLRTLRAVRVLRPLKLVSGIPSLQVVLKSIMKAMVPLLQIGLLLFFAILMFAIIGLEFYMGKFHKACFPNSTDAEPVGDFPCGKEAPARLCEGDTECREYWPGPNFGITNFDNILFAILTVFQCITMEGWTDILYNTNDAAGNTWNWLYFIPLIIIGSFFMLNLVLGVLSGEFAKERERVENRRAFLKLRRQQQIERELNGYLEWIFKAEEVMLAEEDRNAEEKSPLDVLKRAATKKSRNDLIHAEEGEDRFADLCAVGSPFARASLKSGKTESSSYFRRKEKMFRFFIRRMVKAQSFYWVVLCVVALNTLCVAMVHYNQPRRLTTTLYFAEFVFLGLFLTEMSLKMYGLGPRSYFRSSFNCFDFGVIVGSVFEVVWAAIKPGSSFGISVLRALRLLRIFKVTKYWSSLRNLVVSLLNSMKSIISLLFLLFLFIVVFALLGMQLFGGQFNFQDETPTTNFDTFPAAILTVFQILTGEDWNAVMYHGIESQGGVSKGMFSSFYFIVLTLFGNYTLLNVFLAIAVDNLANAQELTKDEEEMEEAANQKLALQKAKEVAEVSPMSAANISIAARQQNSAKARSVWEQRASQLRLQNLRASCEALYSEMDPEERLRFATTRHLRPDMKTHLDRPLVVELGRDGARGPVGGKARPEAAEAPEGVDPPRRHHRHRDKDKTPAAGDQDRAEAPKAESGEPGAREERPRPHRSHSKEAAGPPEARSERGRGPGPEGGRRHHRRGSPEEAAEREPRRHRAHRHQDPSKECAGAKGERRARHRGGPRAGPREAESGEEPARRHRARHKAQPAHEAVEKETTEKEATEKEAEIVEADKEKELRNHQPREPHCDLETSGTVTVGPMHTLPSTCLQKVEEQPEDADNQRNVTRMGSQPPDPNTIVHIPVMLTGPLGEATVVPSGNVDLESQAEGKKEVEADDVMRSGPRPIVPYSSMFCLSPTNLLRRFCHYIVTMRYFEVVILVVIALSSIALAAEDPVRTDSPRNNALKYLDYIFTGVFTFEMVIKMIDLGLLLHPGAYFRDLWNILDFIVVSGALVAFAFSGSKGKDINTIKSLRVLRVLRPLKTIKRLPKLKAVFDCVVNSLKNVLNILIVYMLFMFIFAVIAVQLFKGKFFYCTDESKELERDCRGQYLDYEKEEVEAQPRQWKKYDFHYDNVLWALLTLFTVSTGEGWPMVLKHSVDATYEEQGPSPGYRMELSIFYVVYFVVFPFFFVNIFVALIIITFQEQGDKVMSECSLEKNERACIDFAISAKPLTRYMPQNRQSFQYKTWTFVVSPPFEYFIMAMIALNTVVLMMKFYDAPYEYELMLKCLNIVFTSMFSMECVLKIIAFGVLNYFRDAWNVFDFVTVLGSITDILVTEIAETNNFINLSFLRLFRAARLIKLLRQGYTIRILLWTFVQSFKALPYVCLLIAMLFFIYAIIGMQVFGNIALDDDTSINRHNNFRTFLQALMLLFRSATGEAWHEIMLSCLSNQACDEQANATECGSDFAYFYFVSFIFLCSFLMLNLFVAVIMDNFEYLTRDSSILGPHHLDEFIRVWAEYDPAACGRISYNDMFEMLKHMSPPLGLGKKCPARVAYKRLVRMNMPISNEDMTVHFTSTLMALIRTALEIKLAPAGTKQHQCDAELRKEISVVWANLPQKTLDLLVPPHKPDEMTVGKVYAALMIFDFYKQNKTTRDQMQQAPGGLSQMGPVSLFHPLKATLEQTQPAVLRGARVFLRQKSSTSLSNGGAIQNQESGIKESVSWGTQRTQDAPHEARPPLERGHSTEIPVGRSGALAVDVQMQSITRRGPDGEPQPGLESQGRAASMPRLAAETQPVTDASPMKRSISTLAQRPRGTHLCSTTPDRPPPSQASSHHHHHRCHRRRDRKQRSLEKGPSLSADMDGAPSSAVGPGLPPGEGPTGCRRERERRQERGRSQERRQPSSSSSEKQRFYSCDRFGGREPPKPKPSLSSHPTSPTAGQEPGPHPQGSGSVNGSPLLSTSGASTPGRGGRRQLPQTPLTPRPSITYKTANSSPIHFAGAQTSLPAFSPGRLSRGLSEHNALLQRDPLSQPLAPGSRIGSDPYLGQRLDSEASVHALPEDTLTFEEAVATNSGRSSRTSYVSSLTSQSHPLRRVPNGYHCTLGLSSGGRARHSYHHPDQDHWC
T1 sequence (Q02410 whole entry): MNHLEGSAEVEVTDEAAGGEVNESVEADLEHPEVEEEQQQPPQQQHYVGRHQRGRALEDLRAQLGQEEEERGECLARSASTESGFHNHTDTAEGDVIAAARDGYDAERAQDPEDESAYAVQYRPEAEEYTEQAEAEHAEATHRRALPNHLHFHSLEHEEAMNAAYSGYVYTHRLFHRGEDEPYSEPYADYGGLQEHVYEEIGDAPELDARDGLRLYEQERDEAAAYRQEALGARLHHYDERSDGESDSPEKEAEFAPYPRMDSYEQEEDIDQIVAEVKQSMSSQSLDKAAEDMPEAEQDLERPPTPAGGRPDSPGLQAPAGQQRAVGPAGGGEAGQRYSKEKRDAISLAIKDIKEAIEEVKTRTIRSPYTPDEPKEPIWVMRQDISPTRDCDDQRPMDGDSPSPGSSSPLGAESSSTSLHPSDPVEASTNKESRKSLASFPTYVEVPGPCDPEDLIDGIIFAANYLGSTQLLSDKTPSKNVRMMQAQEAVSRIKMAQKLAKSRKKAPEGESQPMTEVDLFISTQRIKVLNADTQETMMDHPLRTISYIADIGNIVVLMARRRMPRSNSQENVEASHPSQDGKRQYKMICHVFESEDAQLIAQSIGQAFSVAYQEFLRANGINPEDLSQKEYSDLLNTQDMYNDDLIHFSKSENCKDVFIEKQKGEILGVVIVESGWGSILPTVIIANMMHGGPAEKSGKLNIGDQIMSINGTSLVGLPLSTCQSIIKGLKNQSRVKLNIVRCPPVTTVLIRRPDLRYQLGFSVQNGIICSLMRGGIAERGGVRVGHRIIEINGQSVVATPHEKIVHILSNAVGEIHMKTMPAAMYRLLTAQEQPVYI

SMILES: CC(=O)c1cccc(NC(=O)c2cc(-c3ccc(C)cc3)on2)c1
- IC50 [1]: 15.5 µM (active)
- IC50 [2]: > 50 µM (inactive)

SMILES: CCOc1ccc2nc(O)c(CN(Cc3ccco3)C(CC)c3nnnn3Cc3ccccc3)cc2c1 (stereo unspecified)
- EC50 [3]: > 100 µM (inactive)
- IC50 (H9c2): > 79 µM (inactive)

SMILES: Nc1ncc(-c2nnnn2-c2ccc(Cl)cc2)c(-c2ccc(Cl)cc2)n1
- IC50 [4]: 4.61 µM (active)

SMILES: Cc1cc(N2CCCCC2)nc(NCc2ccccc2)n1
- CC50 [5]: > 20 µM (active)
- EC50 (BJ [6]): 21.4 µM (active)
- EC50 [7]: > 60 µM (not active)
- EC50 [8]: 25.9 µM (active)
- EC50 (BJ [9]): 17.4 µM (active)
- AC50 [10]: 54.8 µM (active)
- AC50 [11]: 4.01 µM (active)
- IC50 (cells): 40.2 µM (active)
- CC50 [12]: > 20 µM (active)
- EC50 (Ion channel NompC): > 3.32 µM (inactive)
- EC50 (BJ [13]): > 75 µM (inconclusive)
- IC50 [14]: > 64 µM (inactive)
- AC50 [15]: 6.27 µM (active)
- EC50 [16]: 2.04 µM (active)
- EC50 (Mucolipin-3): > 3.32 µM (active)
- CC50 [17]: 8.56 µM (active)
